“And” between values parts separate entries of the source, which are not always exact repeats. Equal values may be shown once.
Experiments:
PfCRT^3D7 [1] = molecular target: T1, PfCRT^3D7 (Plasmodium falciparum, UniProt Q8IBZ9); experiment: cell-based; format: cell-based
Excerpt: (§1) The orientation of PfCRT in the parasite’s DV membrane, and also in the oocyte plasma membrane, is such that its N- and C-termini extend into the cytosol. The oocytes were suspended in a reaction buffer adjusted to pH 5.5 to mimic the pH of the DV lumen[1],[2]. In this scenario, the transport of a substrate via PfCRT from the acidic extracellular solution into the oocyte cytosol[15] is analogous to the parasite’s PfCRT-mediated efflux of a substrate from the acidic DV and into the cytosol. Unless specified otherwise, this is the direction in which substrate transport was measured in the oocyte assays.
(§2) Unless specified otherwise, the transport assays were conducted over 1.5 h at 27.5 °C and the reaction buffer was ND96 (96 mM NaCl, 2 mM KCl, 1 mM MgCl2, 1.8 mM CaCl2, 10 mM MES and 10 mM Tris-base) at pH 5.5.
(§3) Ten oocytes were washed twice with the relevant ND96 buffer. […] The assay was terminated by removing the reaction buffer and washing the oocytes with ice-cold ND96 buffer. The oocytes were lysed in 10% (w/v) sodium dodecyl sulfate (SDS) and the radioactivity accumulated within each oocyte was measured with a MicroBeta^2 microplate liquid scintillation analyser (PerkinElmer).
(§4) At least four independent experiments were performed (on different days and using oocytes from different frogs), and within each experiment measurements were made from ten oocytes per treatment.

PfCRT^3D7 [2] = molecular target: T1, PfCRT^3D7; experiment: cell-based; format: cell-based; remark: listed apart in the source
In short: (§5)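 Transport measured in Xenopus oocytes expressing the transporters, 1.5 h at 27.5 °C in ND96 pH 5.5 unless noted. For trans-stimulation, VF-6 injected in 25 nL ND96 at pH 5.0–7.0 or Na^+-free (choline) buffer; intracellular levels based on ~400 nL oocyte volume. Ten oocytes per treatment, ≥4 experiments.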

PfNT1 = molecular target: T2, PfNT1 (Plasmodium falciparum, UniProt Q8IDM6); experiment: cell-based; format: cell-based
T2 construct: expressed in transfected cells; host or cells: Xenopus laevis oocytes (stage V-VI), cRNA-injected
In short: as §5

non-expressing oocytes [3] = format: cell-based, Xenopus laevis
Description: as §2
The intracellular concentrations were calculated using previous estimates of the volume of stage V–VI oocytes (~400 nL[60]). […] The oocytes were injected with VF-6 suspended in 25 nL ND96 buffer adjusted to pH 5.0, 5.5, 6.0 or 7.0, which corresponded to the injection of 2.5–250 fmol of H^+. The Na^+-dependence of the trans-stimulatory effect of VF-6 was assessed by injecting the oocytes with VF-6 suspended in ND96 buffer (pH 5.5) or a Na^+-free version of this buffer (the Na^+ was replaced with choline).
as §4

non-expressing oocytes [4] = experiment: cells; format: cell-based, Xenopus laevis
Excerpt: as §1, §2, §3, §4

T2 sequence (Q8IDM6 whole entry): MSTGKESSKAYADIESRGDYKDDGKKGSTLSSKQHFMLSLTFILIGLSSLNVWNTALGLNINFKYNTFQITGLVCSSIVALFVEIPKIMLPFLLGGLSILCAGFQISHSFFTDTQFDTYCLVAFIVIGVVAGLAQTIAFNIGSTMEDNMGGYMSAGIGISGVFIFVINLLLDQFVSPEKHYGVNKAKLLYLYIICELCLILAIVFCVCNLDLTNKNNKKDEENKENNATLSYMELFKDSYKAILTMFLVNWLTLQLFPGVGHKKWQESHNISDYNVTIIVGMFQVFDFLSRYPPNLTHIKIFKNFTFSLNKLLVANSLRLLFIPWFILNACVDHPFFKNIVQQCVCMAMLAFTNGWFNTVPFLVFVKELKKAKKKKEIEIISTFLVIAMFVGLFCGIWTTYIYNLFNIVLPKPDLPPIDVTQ
T1 sequence (Q8IBZ9 59-398): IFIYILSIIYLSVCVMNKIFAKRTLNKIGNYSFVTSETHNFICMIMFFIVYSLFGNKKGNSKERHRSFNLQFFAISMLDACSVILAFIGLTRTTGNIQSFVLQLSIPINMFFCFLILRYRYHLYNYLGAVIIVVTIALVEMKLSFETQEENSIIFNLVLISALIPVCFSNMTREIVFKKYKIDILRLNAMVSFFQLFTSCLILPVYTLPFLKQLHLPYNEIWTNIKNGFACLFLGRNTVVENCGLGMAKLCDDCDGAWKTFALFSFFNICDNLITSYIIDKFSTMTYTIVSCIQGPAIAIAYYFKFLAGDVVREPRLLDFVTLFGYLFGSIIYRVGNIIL

| Compound | Cis-inhibition data: total [3H]CQ transport, normalised to the oocyte type control (PfCRT^3D7 [1]) | Total [3H]CQ transport, cis-inhibition by solute (PfCRT^3D7 [1]) | PfCRT-mediated [3H]CQ transport, trans-stimulation by injected solute, PfCRT3D7 (PfCRT^3D7 [2]) | Total [3H]CQ transport, trans-stimulation by injected solute (PfCRT^3D7 [2]) | Trans-stimulation data: PfCRT-mediated [3H]CQ transport (PfCRT^3D7 [2]) | Trans-stimulation data: total [3H]CQ transport, normalised to the oocyte type control (PfCRT^3D7 [2]) | Total [3H]CQ transport, trans-stimulation by injected solute (PfNT1) | Trans-stimulation data: total [3H]CQ transport, normalised to the oocyte type control (PfNT1) | Total [3H]CQ transport, trans-stimulation by injected solute (non-expressing oocytes [3]) | Trans-stimulation data: total [3H]CQ transport, normalised to the oocyte type control (non-expressing oocytes [3]) | Cis-inhibition data: total [3H]CQ transport, normalised to the oocyte type control (non-expressing oocytes [4]) | Total [3H]CQ transport, cis-inhibition by solute (non-expressing oocytes [4]) |
| --- | --- | --- | --- | --- | --- | --- | --- | --- | --- | --- | --- | --- |
| O=CO [Formate] | 101 ± 7.3 and 99 ± 3.8 and 100 ± 4.4 | 2.4 ± 0.06 and 3.5 ± 0.07 and 3.3 ± 0.07 | 0.8 ± 0.01 and 0.8 ± 0.03 | 3.8 ± 0.01 and 3.8 ± 0.03 | 99 ± 3.7 and 99 ± 3.8 | 101 ± 2.9 and 101 ± 2.8 | 3.1 ± 0.08 and 2.3 ± 0.06 | 101 ± 3.6 and 100 ± 24 | 2.5 ± 0.09 and 3.2 ± 0.08 | 101 ± 3.9 and 99 ± 3.5 | 100 ± 3.5 and 100 ± 1.8 | 2.8 ± 0.03 and 3.2 ± 0.08 and 2.5 ± 0.04 |
| N[C@@H](CCC(=O)N[C@@H](CS)C(=O)NCC(=O)O)C(=O)O [Reduced glutathione (GSH)] | 100 ± 5.5 and 101 ± 3.7 and 100 ± 4.7 | 2.7 ± 0.06 and 3.1 ± 0.08 and 3.3 ± 0.07 | 0.2 ± 0.03 and 0.2 ± 0.01 | 3.2 ± 0.03 | 96 ± 3.7 and 98 ± 3.9 | 98 ± 4.3 and 100 ± 3.8 | 3.8 ± 0.07 and 2.7 ± 0.06 | 98 ± 3.8 and 99 ± 4.4 | 2.7 ± 0.05 and 2.9 ± 0.05 | 99 ± 4.9 and 101 ± 4.7 | 99 ± 4.6 and 99 ± 4.5 and 101 ± 2.2 | 2.8 ± 0.2 and 2.6 ± 0.08 and 3.2 ± 0.08 |

— paper PMC7413254 (Nature Communications, 2020)
